# Laboratory results from ChEMBL document CHEMBL4421717, “Antagonists and agonists of bitter taste receptors and uses thereof” (2012).
# The source made the active and inactive calls. The rule behind the calls is not given here.
# Legend:
# Assay type in all cases: functional, cell-based
# [1] = molecular target: T1, Taste receptor type 2 member 46 (Homo sapiens, UniProt P59540); assay: Antagonist activity at recombinant human N-terminal rat ST3 receptor-fused TAS2R46 expressed in HEK293T cells co-expressing Galpha16gust44 assessed as inhibition of 100 uM absinthin-induced intracellular calcium level 100 uM by FLIPR assay
# T1 sequence (P59540 whole entry): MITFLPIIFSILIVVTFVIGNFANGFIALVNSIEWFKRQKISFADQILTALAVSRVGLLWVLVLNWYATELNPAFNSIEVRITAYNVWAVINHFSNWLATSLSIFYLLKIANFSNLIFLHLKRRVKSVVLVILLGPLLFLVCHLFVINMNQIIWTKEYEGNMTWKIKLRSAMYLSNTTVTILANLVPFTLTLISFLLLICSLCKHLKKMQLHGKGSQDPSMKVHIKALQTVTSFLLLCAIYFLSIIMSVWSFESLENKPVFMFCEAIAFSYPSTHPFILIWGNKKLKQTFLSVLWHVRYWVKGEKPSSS
# [2] = molecular target: Taste receptor type 2 member 60 (Homo sapiens) (UniProt P59551); assay: Agonist activity at recombinant human N-terminal rat ST3 receptor-fused TAS2R60 expressed in HEK293T cells co-expressing Galpha16gust44 assessed as effect on intracellular calcium level at 100 uM by FLIPR assay
# [3] = molecular target: Taste receptor type 2 member 40 (Homo sapiens) (UniProt P59535); assay: Agonist activity at recombinant human N-terminal rat ST3 receptor-fused TAS2R40 expressed in HEK293T cells co-expressing Galpha16gust44 assessed as effect on intracellular calcium level at 100 uM by FLIPR assay
# [4] = molecular target: T2, Taste receptor type 2 member 38 (Homo sapiens) (UniProt P59533); assay: Agonist activity at recombinant human N-terminal rat ST3 receptor-fused TAS2R38 expressed in HEK293T cells co-expressing Galpha16gust44 assessed as effect on intracellular calcium level at 100 uM by FLIPR assay
# T2 sequence (whole entry): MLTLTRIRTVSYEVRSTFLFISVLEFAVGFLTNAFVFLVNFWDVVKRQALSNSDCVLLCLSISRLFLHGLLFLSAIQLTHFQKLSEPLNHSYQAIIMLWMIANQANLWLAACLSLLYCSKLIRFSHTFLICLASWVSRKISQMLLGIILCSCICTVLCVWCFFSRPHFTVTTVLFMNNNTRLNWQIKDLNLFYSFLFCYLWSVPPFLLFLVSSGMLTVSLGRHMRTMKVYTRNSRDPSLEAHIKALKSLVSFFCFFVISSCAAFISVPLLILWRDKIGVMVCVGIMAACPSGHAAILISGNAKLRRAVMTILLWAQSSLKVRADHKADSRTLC
# [5] = molecular target: T3, Taste receptor type 2 member 50 (Homo sapiens) (UniProt P59544); assay: Agonist activity at recombinant human N-terminal rat ST3 receptor-fused TAS2R50 expressed in HEK293T cells co-expressing Galpha16gust44 assessed as effect on intracellular calcium level at 100 uM by FLIPR assay
# T3 sequence (whole entry): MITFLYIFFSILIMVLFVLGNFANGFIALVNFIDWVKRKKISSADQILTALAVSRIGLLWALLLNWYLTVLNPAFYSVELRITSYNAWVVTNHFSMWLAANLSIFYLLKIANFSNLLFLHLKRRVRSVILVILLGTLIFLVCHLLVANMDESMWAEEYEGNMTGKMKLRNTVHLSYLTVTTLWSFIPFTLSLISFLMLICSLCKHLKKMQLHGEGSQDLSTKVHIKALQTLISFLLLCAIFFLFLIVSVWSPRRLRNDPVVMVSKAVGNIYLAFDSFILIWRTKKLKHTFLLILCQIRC
# [6] = molecular target: Taste receptor type 2 member 19 (Homo sapiens) (UniProt P59542); assay: Agonist activity at recombinant human N-terminal rat ST3 receptor-fused TAS2R48 expressed in HEK293T cells co-expressing Galpha16gust44 assessed as effect on intracellular calcium level at 100 uM by FLIPR assay
# [7] = molecular target: T4, Taste receptor type 2 member 3 (Homo sapiens) (UniProt Q9NYW6); assay: Agonist activity at recombinant human N-terminal rat ST3 receptor-fused TAS2R3 expressed in HEK293T cells co-expressing Galpha16gust44 assessed as effect on intracellular calcium level at 100 uM by FLIPR assay
# T4 sequence (whole entry): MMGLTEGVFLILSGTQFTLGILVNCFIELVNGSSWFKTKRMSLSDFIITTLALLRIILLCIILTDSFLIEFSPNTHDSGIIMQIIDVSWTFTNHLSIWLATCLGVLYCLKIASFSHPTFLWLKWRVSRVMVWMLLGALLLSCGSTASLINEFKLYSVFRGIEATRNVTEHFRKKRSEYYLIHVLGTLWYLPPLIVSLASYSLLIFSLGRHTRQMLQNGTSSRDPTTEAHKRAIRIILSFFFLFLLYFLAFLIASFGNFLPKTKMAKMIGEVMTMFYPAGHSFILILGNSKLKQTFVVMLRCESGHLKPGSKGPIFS
# [8] = molecular target: T5, Taste receptor type 2 member 46 (Homo sapiens) (UniProt P59540); assay: Competitive antagonist activity at recombinant human N-terminal rat ST3 receptor-fused TAS2R46 expressed in HEK293T cells co-expressing Galpha16gust44 assessed as inhibition strychnine-induced intracellular calcium level by measuring strychnine induced maximum signal amplitude at 10 uM by FLIPR assay (reference value: 0.42 +/- 0.09 au))
# T5 sequence (whole entry): T1 sequence (P59540 whole entry)
# [9] = molecular target: Taste receptor type 2 member 7 (Homo sapiens) (UniProt Q9NYW3); assay: Agonist activity at recombinant human N-terminal rat ST3 receptor-fused TAS2R7 expressed in HEK293T cells co-expressing Galpha16gust44 assessed as effect on intracellular calcium level at 100 uM by FLIPR assay
# [10] = molecular target: T6, Taste receptor type 2 member 43 (Homo sapiens) (UniProt P59537); assay: Agonist activity at recombinant human N-terminal rat ST3 receptor-fused TAS2R43 expressed in HEK293T cells co-expressing Galpha16gust44 assessed as effect on intracellular calcium level at 100 uM by FLIPR assay
# T6 sequence (whole entry): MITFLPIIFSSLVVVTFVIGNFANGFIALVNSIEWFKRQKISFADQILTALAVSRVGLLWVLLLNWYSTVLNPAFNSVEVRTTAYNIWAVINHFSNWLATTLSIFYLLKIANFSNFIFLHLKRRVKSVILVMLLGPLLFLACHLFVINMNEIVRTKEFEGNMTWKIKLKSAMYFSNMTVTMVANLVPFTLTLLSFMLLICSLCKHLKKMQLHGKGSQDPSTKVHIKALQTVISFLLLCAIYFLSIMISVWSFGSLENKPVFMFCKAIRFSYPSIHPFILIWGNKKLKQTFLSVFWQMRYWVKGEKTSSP
# [11] = molecular target: Taste receptor type 2 member 42 (Homo sapiens) (UniProt Q7RTR8); assay: Agonist activity at recombinant human N-terminal rat ST3 receptor-fused TAS2R42 expressed in HEK293T cells co-expressing Galpha16gust44 assessed as effect on intracellular calcium level at 100 uM by FLIPR assay
# [12] = molecular target: Taste receptor type 2 member 7 (Homo sapiens) (UniProt Q9NYW3); assay: Activity at recombinant human N-terminal rat ST3 receptor-fused TAS2R7 expressed in HEK293T cells co-expressing Galpha16gust44 assessed as increase in quinine sulfate-induced intracellular calcium level at 100 uM by FLIPR assay
# Taste receptor type 2 member 7 (Homo sapiens), sequence (Q9NYW3 whole entry, the tested form may be a part): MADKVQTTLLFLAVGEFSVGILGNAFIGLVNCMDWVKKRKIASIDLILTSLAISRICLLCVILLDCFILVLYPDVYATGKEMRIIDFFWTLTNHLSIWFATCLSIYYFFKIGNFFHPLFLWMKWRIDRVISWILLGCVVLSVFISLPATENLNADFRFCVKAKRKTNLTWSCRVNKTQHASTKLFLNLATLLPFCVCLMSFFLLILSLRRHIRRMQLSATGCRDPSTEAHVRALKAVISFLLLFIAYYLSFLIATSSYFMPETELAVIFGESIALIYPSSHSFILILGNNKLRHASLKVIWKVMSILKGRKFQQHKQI
# Taste receptor type 2 member 60 (Homo sapiens), sequence (P59551 whole entry, the tested form may be a part): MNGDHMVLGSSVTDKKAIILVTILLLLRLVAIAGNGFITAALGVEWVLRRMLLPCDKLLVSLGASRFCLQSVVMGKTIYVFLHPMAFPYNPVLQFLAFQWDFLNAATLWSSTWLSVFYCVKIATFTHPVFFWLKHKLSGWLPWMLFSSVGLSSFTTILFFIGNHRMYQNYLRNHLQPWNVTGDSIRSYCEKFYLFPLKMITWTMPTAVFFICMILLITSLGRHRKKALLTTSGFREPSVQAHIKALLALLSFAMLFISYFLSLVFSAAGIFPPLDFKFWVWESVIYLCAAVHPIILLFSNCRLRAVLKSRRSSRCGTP
# Taste receptor type 2 member 40 (Homo sapiens), sequence (P59535 whole entry, the tested form may be a part): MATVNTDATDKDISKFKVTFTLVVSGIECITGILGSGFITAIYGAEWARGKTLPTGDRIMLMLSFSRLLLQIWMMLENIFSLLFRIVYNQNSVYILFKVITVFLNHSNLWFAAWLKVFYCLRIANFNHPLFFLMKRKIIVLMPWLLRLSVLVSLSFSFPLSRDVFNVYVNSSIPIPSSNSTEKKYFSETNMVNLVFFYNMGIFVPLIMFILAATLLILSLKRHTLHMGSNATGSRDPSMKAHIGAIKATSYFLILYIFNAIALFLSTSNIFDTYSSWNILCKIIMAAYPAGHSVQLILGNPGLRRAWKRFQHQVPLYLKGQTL
# Taste receptor type 2 member 19 (Homo sapiens), sequence (P59542 whole entry, the tested form may be a part): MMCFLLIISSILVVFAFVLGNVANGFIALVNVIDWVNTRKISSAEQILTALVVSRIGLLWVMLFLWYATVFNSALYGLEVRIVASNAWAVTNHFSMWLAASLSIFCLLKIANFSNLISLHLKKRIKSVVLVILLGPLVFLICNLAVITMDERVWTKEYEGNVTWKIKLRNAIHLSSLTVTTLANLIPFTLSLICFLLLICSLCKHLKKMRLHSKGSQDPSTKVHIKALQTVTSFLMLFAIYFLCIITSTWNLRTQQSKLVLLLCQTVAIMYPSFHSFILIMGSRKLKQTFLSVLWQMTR
# Taste receptor type 2 member 42 (Homo sapiens), sequence (Q7RTR8 whole entry, the tested form may be a part): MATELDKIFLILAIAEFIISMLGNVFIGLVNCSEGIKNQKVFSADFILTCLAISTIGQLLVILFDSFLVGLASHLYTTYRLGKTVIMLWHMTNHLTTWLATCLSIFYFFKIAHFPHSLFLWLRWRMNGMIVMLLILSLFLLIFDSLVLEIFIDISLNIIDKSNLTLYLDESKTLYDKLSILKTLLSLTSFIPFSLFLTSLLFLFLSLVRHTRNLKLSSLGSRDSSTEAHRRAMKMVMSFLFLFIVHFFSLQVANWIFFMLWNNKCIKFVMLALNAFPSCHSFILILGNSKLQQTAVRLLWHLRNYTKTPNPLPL
SMILES,IC50 [1] [µM],Activity [2],Activity [3],Activity [4],Activity [5],Activity [6],Activity [7],Activity [8] [a.u.],Activity [9],Activity [10],Activity [11],Activity [12]
C/C1=C\C[C@H](O)[C@@H](C)C[C@H]2OC(=O)[C@@H](C)C2CC1 (some centres not stated),57.8,–,–,–,–,–,–,–,–,–,–,–
C/C1=C\C[C@H](O)/C(C)=C/[C@H]2OC(=O)[C@@H](C)C2CC1 (some centres not stated),–,inactive,inactive,inactive,inactive,inactive,inactive,0.4,Active,inactive,inactive,Active
